Results on 25 compounds are retold here after patent US8536187B2 (Gilead Sciences, Inc., priority 2008, dated 2013).

Data set [1] is described as follows: CC50 assay (CellTiter-Glo) in Huh-7 HCV replicon cells. In kind it is cell-based. To be noted: human. A digest of the protocol: (§1)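 Cytotoxicity (CC50) read by CellTiter-Glo luminescence after 10 min, and antiviral EC50 by luciferase signal after 30 min lysis with substrate, both at room temperature. Preceding step: 3-day exposure of 6000 Huh-7 HCV replicon cells per well to compound dilution series at 37° C, 5% CO2, in 0.5% DMSO.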
For orientation: Cellular ATP, detected with luciferase, serves as a proxy for viable cell number.

Data set [2] relates to HCV replicon in human hepatoma Huh-7 cell line. Briefly: Anti-HCV replicon assay, EC50 (luciferase luminescence). Type of data set: cell-based. Particulars: Hepatitis C virus, Huh-7, 72 h. The method in brief: as §1
(In general: Replicon systems follow genome replication, usually without infectious particles.)

`CS(=O)(=O)c1cccc(-c2ccc3nc(NCc4ccc(S(N)(=O)=O)cc4)nc(NCC(F)(F)F)c3n2)c1` [Example 15, 4-{[6-(3-Methanesulfonyl-phenyl)-4-(2,2,2-trifluoro-ethylamino)-pyrido[3,2-d]pyrimidin-2-ylamino]-methyl}-benzenesulfonamide]: the CC50 (commonly the concentration giving 50% cytotoxicity) at 3 days in data set [1] (Table 1, 3 days incubation) is over 25000 nM. The EC50 (commonly the concentration that produces a half-maximal response) in data set [2] is under 100 nM.

The compound `CS(=O)(=O)c1cccc(CNc2nc(NC3(C(F)(F)F)CC3)c3nc(-c4ccc(F)cc4C#N)ccc3n2)c1` [Example 104, 2-(2-(3-(methylsulfonyl)benzylamino)-4-(1-(trifluoromethyl)cyclopropyl-amino)pyrido[3,2-d]pyrimidin-6-yl)-5-fluorobenzonitrile] showed a CC50 at 3 days in data set [1] (Table 2, 3 days incubation) of over 10000 nM. This compound also displayed an EC50 in data set [2] of 100 to 250 nM.

In data set [1] (Table 2, 3 days incubation), `NS(=O)(=O)c1cc(F)cc(CNc2nc(NC3(C(F)(F)F)CC3)c3nc(C#CC4CC4)ccc3n2)c1` [Example 63, 3-((6-(2-cyclopropylethynyl)-4-(1-(trifluoromethyl)cyclopropylamino)pyrido[3,2-d]pyrimidin-2-ylamino)methyl)-5-fluorobenzenesulfonamide] displayed a cytotoxic concentration (CC50) at 3 days of over 10000 nM. For the same compound, the EC50 in data set [2] was under 100 nM.

The compound `COc1ccc(-c2ccc3nc(NCc4ccc(S(N)(=O)=O)cc4)nc(NCC(F)(F)F)c3n2)cc1S(=O)(=O)C(F)(F)F` [Example 165, 4-((6-(4-methoxy-3-(trifluoromethylsulfonyl)phenyl)-4-(2,2,2-trifluoroethylamino)pyrido[3,2-d]pyrimidin-2-ylamino)methyl)benzene-sulfonamide] came in with a CC50 at 3 days in data set [1] (Table 2, 3 days incubation) of 1000 to 10000 nM. Besides, in data set [2], the EC50 was under 100 nM.

With `COc1nc(N[C@H](C)c2ccc(S(N)(=O)=O)cc2)nc2ccc(C#CC3CC3)nc12` [Example 315, (R)-4-(1-(6-(2-cyclopropyl-ethynyl)-4-methoxypyrido [3,2-d]pyrimidin-2-ylamino)ethyl)benzenesulfonamide], the CC50 at 3 days in data set [1] (Table 2, 3 days incubation) is over 10000 nM. Also, the EC50 in data set [2] lay in the range of 250 to 2000 nM.

`NS(=O)(=O)c1ccc(CNc2nc(NCC(F)(F)F)c3nc(-c4ccc(F)cc4)ccc3n2)cc1Cl` [Example 5, 2-Chloro-4-{[6-(4-fluoro-phenyl)-4-(2,2,2-trifluoro-ethylamino)-pyrido[-3,2-d]pyrimidin-2-ylamino]-methyl}-benzenesulfonamide] gave a CC50 at 3 days in data set [1] (Table 1, 3 days incubation) of over 25000 nM. Further, in data set [2], the EC50 was under 100 nM.

For `CS(=O)(=O)c1cccc(-c2ccc3nc(NCc4ccc(S(N)(=O)=O)cc4)nc(OC4CC4)c3n2)c1` [Example 22, 4-{[4-Cyclopropoxy-6-(3-methanesulfonyl-phenyl)-pyrido[3,2-d]pyrimidin-2-ylamino]-methyl}-benzenesulfonamide], in data set [1] (Table 1, 3 days incubation), the CC50 at 3 days was over 25000 nM. In data set [2], this compound returned an EC50 of under 100 nM.

Compound `COc1ccc(-c2ccc3nc(NCc4cccc(S(C)(=O)=O)c4)nc(NCC(F)(F)F)c3n2)cc1S(C)(=O)=O` [Example 177, N^2-(3-(methylsulfonyl)benzyl)-6-(4-methoxy-3-(methylsulfonyl)phenyl)-N^4-(2,2,2-trifluoroethyl) pyrido[3,2-d]pyrimidine-2,4-diamine] showed a CC50 at 3 days in data set [1] (Table 2, 3 days incubation) of 1000 to 10000 nM. The EC50 in data set [2] was under 100 nM.

In data set [1] (Table 1, 3 days incubation), `Cc1cc(S(N)(=O)=O)ccc1CNc1nc(NCC(F)(F)F)c2nc(-c3ccc(F)cc3)ccc2n1` [Example 4, 4-{[6-(4-Fluoro-phenyl)-4-(2,2,2-trifluoro-ethylamino)-pyrido[3,2-d]pyrimidin-2-ylamino]-methyl}-3-methyl-benzenesulfonamide] gave a CC50 at 3 days of over 25000 nM. In addition, the EC50 in data set [2] fell in the range of 250 to 2000 nM.

In turn, `NS(=O)(=O)c1ccc(CNc2nc(NCC(F)(F)F)c3nc(-c4ccc(OC(F)F)nc4)ccc3n2)cc1` [Example 244, 4-((6-(6-(difluoromethoxy)pyridin-3-yl)-4-(2,2,2-trifluoroethylamino)pyrido [3,2-d]pyrimidin-2-ylamino)methyl)benzene-sulfonamide] gave a CC50 at 3 days in data set [1] (Table 2, 3 days incubation) of over 10000 nM. In data set [2], this compound registered an EC50 of 100 to 250 nM.

The compound `COc1ccc(-c2ccc3nc(NCc4ccc(S(N)(=O)=O)cc4)nc(NC4(C(F)(F)F)CC4)c3n2)cc1C(F)(F)F` [Example 75, 4-((6-(4-methoxy-3-(trifluoromethyl)phenyl)-4-(1-(trifluoromethyl)cyclopropyl-amino)pyrido[3,2-d]pyrimidin-2-ylamino)methyl)benzene-sulfonamide] had a CC50 at 3 days in data set [1] (Table 2, 3 days incubation) of over 10000 nM. Besides, the EC50 in data set [2] was 250 to 2000 nM.

`CCOc1nc(N[C@H](C)c2ccc(S(N)(=O)=O)cc2)nc2ccc(C#CC3CC3)nc12` [Example 316, (R)-4-(1-(6-(2-cyclopropyl-ethynyl)-4-ethoxypyrido [3,2-d]pyrimidin-2-ylamino)ethyl)benzenesulfonamide] showed a CC50 at 3 days in data set [1] (Table 2, 3 days incubation) of over 10000 nM. In data set [2], this compound had an EC50 of 100 to 250 nM.

Turning to `C#Cc1ccc2nc(N[C@H](C)c3ccc(S(N)(=O)=O)cc3)nc(O[C@@H]3C[C@@H]4C[C@@H]4C3)c2n1` [Example 314, 4-((R)-1-(4-((1S,3r,5R)-bicyclo[3.1.0]hexan-3-yloxy)-6-ethynylpyrido[3,2-d]pyrimidin-2-ylamino)ethyl) benzenesulfonamide], in data set [1] (Table 2, 3 days incubation), the CC50 at 3 days was over 10000 nM. Moreover, the EC50 in data set [2] was under 100 nM.

`C[C@@H](Nc1nc(NC2(C(F)(F)F)CCCC2)c2nc(-c3ccc(F)cc3)ccc2n1)c1ccc(S(N)(=O)=O)cc1` [Example 71, (R)-4-(1-(6-(4-fluorophenyl)-4-(1-(trifluoromethyl)cyclo-pentylamino)pyrido[3,2-d]pyrimidin-2-ylamino)ethyl) benzenesulfonamide] showed a CC50 at 3 days in data set [1] (Table 2, 3 days incubation) of over 10000 nM. This compound also came in with an EC50 in data set [2] of 250 to 2000 nM.

Compound `C[C@H](Cn1cncn1)Nc1nc(NCC(F)(F)F)c2nc(C#CC3CC3)ccc2n1` [Example 281, (R)-N^2-(1-(1H-1,2,4-triazol-1-yl)propan-2-yl)-6-(2-cyclopropyl-ethynyl)-N^4-(2,2,2-trifluoro-ethyl)pyrido[3,2-d]pyrimidine-2,4-diamine] registered a CC50 at 3 days in data set [1] (Table 2, 3 days incubation) of over 10000 nM. This compound also displayed an EC50 in data set [2] of 250 to 2000 nM.

The compound `COCc1ccc(-c2ccc3nc(NCc4ccc(S(N)(=O)=O)cc4)nc(NCC(F)(F)F)c3n2)cc1S(C)(=O)=O` [Example 146, 4-((6-(4-(methoxymethyl)-3-(methylsulfonyl)phenyl)-4-(2,2,2-trifluoroethylamino)pyrido[3,2-d]pyrimidin-2-ylamino)methyl)benzene-sulfonamide] registered a CC50 at 3 days in data set [1] (Table 2, 3 days incubation) of over 10000 nM. The EC50 in data set [2] was under 100 nM.

Compound `NS(=O)(=O)c1cc(CNc2nc(NC3(C(F)(F)F)CC3)c3nc(-c4ccc(F)cc4)ccc3n2)ccc1Cl` [Example 88, 2-chloro-5-((6-(4-fluorophenyl)-4-(1-(trifluoromethyl)cyclopropyl-amino)pyrido[3,2-d]pyrimidin-2-ylamino)methyl)benzene-sulfonamide] had a CC50 at 3 days in data set [1] (Table 2, 3 days incubation) of over 10000 nM. Also, the EC50 in data set [2] was 100 to 250 nM.

In data set [1] (Table 2, 3 days incubation), `CC1(Oc2nc(NCc3cc(Cl)cc(S(N)(=O)=O)c3)nc3ccc(C#CC4CC4)nc23)CC1` [Example 301, 3-chloro-5-((6-(2-cyclopropyl-ethynyl)-4-(1-methylcyclo-propoxy)pyrido[3,2-d]pyrimidin-2-ylamino)methyl) benzenesulfonamide] had a half-maximal cytotoxic concentration (CC50) at 3 days of over 10000 nM. Besides, the EC50 in data set [2] is under 100 nM.

The compound `CS(=O)(=O)c1cc(-c2ccc3nc(NCc4ccc(S(N)(=O)=O)cc4)nc(NCC(F)(F)F)c3n2)ccc1OC(F)F` [Example 164, 4-((6-(4-(difluoromethoxy)-3-(methylsulfonyl)phenyl)-4-(2,2,2-trifluoroethylamino)pyrido[3,2-d]pyrimidin-2-ylamino)methyl)benzene-sulfonamide] came in with a CC50 at 3 days in data set [1] (Table 2, 3 days incubation) of over 10000 nM. Besides, the EC50 in data set [2] is under 100 nM.

For `COc1ccc(-c2ccc3nc(NC(C)C#CC4CC4)nc(NCC(F)(F)F)c3n2)cc1S(N)(=O)=O` (centres unmarked) [Example 239, 5-(2-(4-cyclopropylbut-3-yn-2-ylamino)-4-(2,2,2-trifluoroethylamino)pyrido [3,2-d]pyrimidin-6-yl)-2-methoxybenzenesulfonamide], the half-maximal cytotoxic concentration (CC50) at 3 days in data set [1] (Table 2, 3 days incubation) was 1000 to 10000 nM. This compound gave an EC50 in data set [2] of under 100 nM.

For the compound `C[C@H](Cn1cncn1)Nc1nc(NCC(F)(F)F)c2nc(-c3ccc(OC4CC4)nc3)ccc2n1` [Example 258, N^2-((R)-1-(1H-1,2,4-triazol-1-yl)propan-2-yl)-6-(6-cyclo-propoxypyridin-3-yl)-N^4-(2,2,2-trifluoroethyl)pyrido[3,2-d] pyrimidine-2,4-diamine], in data set [1] (Table 2, 3 days incubation), the CC50 at 3 days is over 10000 nM. This compound also registered an EC50 in data set [2] of under 100 nM.

On to `COc1ccc(-c2ccc3nc(NCc4cccc(F)c4)nc(NC4(C(F)(F)F)CC4)c3n2)cc1S(C)(=O)=O` [Example 105, N^2-(3-fluorobenzyl)-6-(4-methoxy-3-(methylsulfonyl)phenyl)-N^4-(1-(trifluoromethyl)cyclopropyl)pyrido[3,2-d] pyrimidine-2,4-diamine], for which the CC50 at 3 days in data set [1] (Table 2, 3 days incubation) is over 10000 nM. Besides, the EC50 in data set [2] was under 100 nM.

In turn, `C[C@@H](Nc1nc(NC2(C(F)(F)F)CC2)c2nc(-c3ccc(F)nc3)ccc2n1)c1ccc(S(N)(=O)=O)cc1` [Example 79, 4-((R)-1-(6-(6-fluoropyridin-3-yl)-4-(1-(trifluoromethyl)cyclopropylamino)pyrido[3,2-d]pyrimidin-2-ylamino)ethyl) benzenesulfonamide] showed a CC50 at 3 days in data set [1] (Table 2, 3 days incubation) of over 10000 nM. This compound also came in with an EC50 in data set [2] of under 100 nM.

In turn, `NS(=O)(=O)c1ccc(CNc2nc(NC3(C(F)(F)F)CC3)c3nc(-c4cccc(C(F)(F)F)c4)ccc3n2)cc1` [Example 80, 4-((4-(1-(trifluoromethyl)cyclopropylamino)-6-(3-(trifluoromethyl)phenyl)pyrido [3,2-d]pyrimidin-2-ylamino)methyl)benzenesulfonamide] yielded a CC50 at 3 days in data set [1] (Table 2, 3 days incubation) of 1000 to 10000 nM. The same compound registered an EC50 in data set [2] of 250 to 2000 nM.

`Nc1ccc(-c2ccc3nc(NCc4ccc(-n5cncn5)cc4)nc(NC4(C(F)(F)F)CC4)c3n2)cn1` [Example 112, N^2-(4-(1H-1,2,4-triazol-1-yl)benzyl)-6-(6-aminopyridin-3-yl)-N^4-(1-(trifluoromethyl)cyclopropyl)pyrido[3,2-d] pyrimidine-2,4-diamine]: the CC50 at 3 days in data set [1] (Table 2, 3 days incubation) is 1000 to 10000 nM. This compound also had an EC50 in data set [2] of under 100 nM.
